Test results from patent US20190231751A1, “TREATMENT OF FIBROTIC DISORDERS WITH JUN N-TERMINAL KINASE INHIBITORS” (Imago Pharmaceuticals, Inc., priority 2016, published 2019).

Tests used:
Type in all cases: biochemical
[1] = biological target: JNK2 (Homo sapiens, UniProt P45984); experiment: In vitro JNK2 inhibition (Table 1)
Procedure: (§1) In vitro assays for the determination of JNK activities are known in the art and exemplary assay formats are described herein.
(§2) IC50 values in Table 1 were determined using the procedures as described in U.S. Pat. No. 8,450,353.

[2] = biological target: JNK1 (Homo sapiens, UniProt P45983); experiment: In vitro JNK1 inhibition (Table 1)
Sequence of JNK1 (P45983 whole entry, species assumed): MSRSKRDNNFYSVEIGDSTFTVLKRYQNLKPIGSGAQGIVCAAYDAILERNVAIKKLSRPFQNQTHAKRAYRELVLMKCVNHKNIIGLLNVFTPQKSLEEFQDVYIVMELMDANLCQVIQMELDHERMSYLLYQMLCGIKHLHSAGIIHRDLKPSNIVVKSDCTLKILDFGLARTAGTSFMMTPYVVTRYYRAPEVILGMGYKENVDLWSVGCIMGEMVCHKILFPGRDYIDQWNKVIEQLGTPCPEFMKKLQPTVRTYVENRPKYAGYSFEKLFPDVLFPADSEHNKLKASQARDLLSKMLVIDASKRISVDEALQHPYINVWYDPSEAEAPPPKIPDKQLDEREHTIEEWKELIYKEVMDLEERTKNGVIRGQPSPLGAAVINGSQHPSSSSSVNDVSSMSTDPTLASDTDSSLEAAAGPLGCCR
Procedure: as §1, §2

[3] = biological target: JNK3 (Homo sapiens, UniProt P53779); experiment: In vitro JNK3 inhibition (Table 1)
Sequence of JNK3 (P53779 whole entry, species assumed): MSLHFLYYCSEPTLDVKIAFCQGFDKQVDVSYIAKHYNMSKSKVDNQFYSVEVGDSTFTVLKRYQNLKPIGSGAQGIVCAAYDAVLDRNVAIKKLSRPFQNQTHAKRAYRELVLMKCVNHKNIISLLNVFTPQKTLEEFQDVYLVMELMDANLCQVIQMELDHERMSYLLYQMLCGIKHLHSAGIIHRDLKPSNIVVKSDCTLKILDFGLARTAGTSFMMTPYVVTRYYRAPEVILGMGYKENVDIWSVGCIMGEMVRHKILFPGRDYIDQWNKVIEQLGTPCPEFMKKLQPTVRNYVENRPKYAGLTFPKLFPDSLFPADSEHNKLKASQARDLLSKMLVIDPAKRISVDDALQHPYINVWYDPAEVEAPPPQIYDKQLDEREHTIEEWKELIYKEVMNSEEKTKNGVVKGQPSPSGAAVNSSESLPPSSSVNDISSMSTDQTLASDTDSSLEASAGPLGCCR
Procedure: as §1, §2

Sequence of JNK2 (P45984 whole entry, species assumed): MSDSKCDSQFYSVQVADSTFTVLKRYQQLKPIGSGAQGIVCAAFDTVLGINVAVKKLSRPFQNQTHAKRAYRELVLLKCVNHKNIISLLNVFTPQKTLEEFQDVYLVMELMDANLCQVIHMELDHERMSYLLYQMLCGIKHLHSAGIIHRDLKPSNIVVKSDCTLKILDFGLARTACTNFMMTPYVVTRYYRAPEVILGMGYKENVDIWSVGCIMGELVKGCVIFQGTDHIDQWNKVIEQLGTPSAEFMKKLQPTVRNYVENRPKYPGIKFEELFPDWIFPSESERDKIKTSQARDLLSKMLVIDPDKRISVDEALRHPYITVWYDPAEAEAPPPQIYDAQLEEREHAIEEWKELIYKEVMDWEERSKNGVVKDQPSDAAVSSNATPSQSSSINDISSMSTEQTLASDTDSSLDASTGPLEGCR

Q: For Cn1cnc(-c2c(C#N)csc2NC(=O)Cc2cccc3ncccc23)n1 [N-(4-cyano-3-(1-methyl-1H-1,2,4-triazol-3-yl)thiophen-2-yl)-2-(quinolin-5-yl)acetamide], which IC50 [1] is on record?
A: < 100 nM

Q: And the IC50 [2]?
A: < 100 nM

Q: And the IC50 [3]?
A: < 100 nM

Q: With N#Cc1csc(NC(=O)Cn2c(=O)ccc3cc(C(F)(F)F)ccc32)c1-n1ccnn1 [N-(4-cyano-3-(1H-1,2,3-triazol-1-yl)thiophen-2-yl)-2-(2-oxo-6-triazol-1-yl)-4-cyanothiophen-2-yl)-2-(2-oxo-6-(trifluoromethyl)quinolin-1(2H)-yl)acetamide] as the compound, how does the IC50 [1] read?
A: 100 to 10000 nM

Q: And the IC50 [2]?
A: 100 to 10000 nM

Q: What about the IC50 [3] of the same compound?
A: 100 to 10000 nM

Q: N#Cc1csc(NC(=O)CN2C(=O)CCc3ncccc32)c1-c1nc[nH]n1 [N-(4-cyano-3-(1H-1,2,4-triazol-3-yl)thiophen-2-yl)-2-(2-oxo-3,4-dihydro-1,5-naphthyridin-1(2H)-yl)acetamide] was tested. Which IC50 [1] did it give?
A: < 100 nM

Q: And the IC50 [2]?
A: < 100 nM

Q: And the IC50 [3]?
A: < 100 nM

Q: N#Cc1csc(NC(=O)CN2C(=O)CCc3ccccc32)c1-c1ncn[nH]1 [N-(4-cyano-3-(1H-1,2,4-triazol-5-yl)thiophen-2-yl)-2-(2-oxo-3,4-dihydroquinolin-1(2H)-yl)acetamide] was tested. Which IC50 [1] did it give?
A: < 100 nM

Q: What about the IC50 [2] of the same compound?
A: < 100 nM

Q: And the IC50 [3]?
A: < 100 nM

Q: Which IC50 [1] does the source give for N#Cc1csc(NC(=O)Cc2cccc3cnccc23)c1-c1ncn[nH]1 [N-(4-cyano-3-(1H-1,2,4-triazol-5-yl)thiophen-2-yl)-2-(isoquinolin-5-yl)acetamide] here?
A: < 100 nM

Q: What about the IC50 [2] of the same compound?
A: < 100 nM

Q: And the IC50 [3]?
A: < 100 nM

Q: Which IC50 [1] does the source give for N#Cc1csc(NC(=O)Cn2c(=O)ccc3cc(C(F)(F)F)ccc32)c1-n1nccn1 [N-(4-cyano-3-(2H-1,2,3-triazol-2-yl)thiophen-2-yl)-2-(2-oxo-6-(trifluoromethyl)quinolin-1(2H)-yl)acetamide] here?
A: < 100 nM

Q: What about the IC50 [2] of the same compound?
A: < 100 nM

Q: What about the IC50 [3] of the same compound?
A: < 100 nM

Q: How did the IC50 [1] turn out when N#Cc1csc(NC(=O)Cc2cccc3ncccc23)c1-c1nnc[nH]1 [N-(4-cyano-3-(4H-1,2,4-triazol-3-yl)thiophen-2-yl)-2-(quinolin-5-yl)acetamide] was run?
A: < 100 nM

Q: And the IC50 [2]?
A: < 100 nM

Q: And the IC50 [3]?
A: < 100 nM

Q: N#Cc1csc(NC(=O)Cn2c(=O)ccc3cc(C(F)(F)F)ccc32)c1-c1ncco1 [N-(4-cyano-3-(oxazol-2-yl)thiophen-2-yl)-2-(2-oxo-6-(trifluoromethyl)quinolin-1(2H)-yl)acetamide] was tested. Which IC50 [1] did it give?
A: < 100 nM

Q: What about the IC50 [2] of the same compound?
A: < 100 nM

Q: And the IC50 [3]?
A: < 100 nM

Q: N#Cc1csc(NC(=O)CN2C(=O)CCc3ncccc32)c1-c1nccs1 [N-(4-cyano-3-(thiazol-2-yl)thiophen-2-yl)-2-(2-oxo-3,4-dihydro-1,5-naphthyridin-1(2H)-yl)acetamide] was tested. Which IC50 [1] did it give?
A: < 100 nM

Q: And the IC50 [2]?
A: < 100 nM

Q: And the IC50 [3]?
A: < 100 nM

Q: What does the source list for N#Cc1csc(NC(=O)Cn2c(=O)ccc3cc(C(F)(F)F)ccc32)c1-c1nccs1 [N-(4-cyano-3-(thiazol-2-yl)thiophen-2-yl)-2-(2-oxo-6-(trifluoromethyl)quinolin-1(2H)-yl)acetamide]?
A: IC50 [1]: < 100 nM; IC50 [2]: < 100 nM; IC50 [3]: < 100 nM

Q: What does the source list for N#Cc1csc(NC(=O)Cn2c(=O)ccc3cc(C(F)(F)F)ccc32)c1-c1cscn1 [N-(4-cyano-3-(thiazol-4-yl)thiophen-2-yl)-2-(2-oxo-6-(trifluoromethyl)quinolin-1(2H)-yl)acetamide]?
A: IC50 [1]: < 100 nM; IC50 [2]: < 100 nM; IC50 [3]: < 100 nM

Q: With Cc1csc(NC(=O)CN2C(=O)CCc3ccccc32)c1-c1ncn[nH]1 [N-(4-methyl-3-(1H-1,2,4-triazol-5-yl)thiophen-2-yl)-2-(2-oxo-3,4-dihydroquinolin-1(2H)-yl)acetamide] as the compound, how does the IC50 [1] read?
A: < 10000 nM

Q: And the IC50 [2]?
A: < 100 nM

Q: What about the IC50 [3] of the same compound?
A: < 100 nM

Q: Which results are given for Cc1n[nH]c(-c2c(C)csc2NC(=O)CN2C(=O)CCc3ccccc32)n1 [N-(4-methyl-3-(3-methyl-1H-1,2,4-triazol-5-yl)thiophen-2-yl)-2-(2-oxo-3,4-dihydroquinolin-1(2H)-yl)acetamide]?
A: IC50 [1]: < 100 nM; IC50 [2]: < 100 nM; IC50 [3]: < 100 nM
